Experimental data taken from US20210346359A1, “Use of CFTR Modulators For Treating Cerebrovascular Conditions” (Qanatpharma AG, priority 2018, published 2021).
“Also recorded” adds a separate entry of the source.

Tests used:
[1] = system: posterior cerebral arteries; assay: Myogenic tone of isolated posterior cerebral arteries after in vivo treatment; set-up: species or system mouse
Excerpt: Myocardial infarction: HF was induced by surgical ligation of the left anterior descending coronary artery (3). Briefly, mice were anaesthetized with isoflurane, intubated with a 20-gauge angiocatheter and ventilated with room air. Under sterile conditions, the thorax and pericardium were opened, and the left anterior descending coronary artery was permanently ligated with 7-0 silk suture (Deknatel: Fall River, USA). In sham-operated controls, the thorax and pericardium were opened, but the left anterior descending coronary artery was not ligated. Following the procedure, the chest was closed and the mice were extubated upon spontaneous respiration. Posterior cerebral arteries (PCAs) were isolated 4-6 weeks post-infarction. […]
Myogenic responses were elicited by step-wise 20 mmHg increases in transmural pressure from 20 mmHg to 80 mmHg (olfactory arteries) or 100 mmHg (posterior cerebral arteries and cremaster skeletal muscle resistance arteries). At each pressure step, vessel diameter (diaactive) was measured once a steady state was reached (5 min). Vessels requiring treatment (e.g., CFTR(inh)-172) were incubated with the reagent in MOPS for 30 min and myogenic responses were then assessed in the presence of that reagent. Following completion of all diaactive measurements, MOPS buffer was replaced with a Ca^2+-free version and maximal passive diameter (diamax) was recorded at each pressure step.
Myogenic tone was calculated as the percent constriction in relation to the maximal diameter at each respective transmural pressure: tone (% of diamax)=[(diamax−diaactive)/diamax]×100, where diaactive is the vessel diameter in MOPS containing Ca^2+ and diamax is the diameter in Ca^2+-free MOPS. Analyses of vasomotor responses to phenylephrine used the same calculation, only in this case, diaactive represents the vessel diameter at steady state following application of the given agent and diamax represents the maximal diameter measured under Ca^2+-free conditions.

[2] = Global hemodynamic parameters (CO, TPR, MAP) in heart failure mice; format: in vivo, mouse; conditions: HF mice, 3 mg/kg daily for 2 days
Method: As previously described (9-11), echocardiographic measurements were collected with a 30 MHz mechanical sector transducer (Vevo 770; Visual Sonics, Toronto, Canada) in conjunction with the mean arterial pressure (MAP) measurements (Millar SPR-671 micro-tip mouse pressure catheter; Inter V Medical Inc., Montreal, Canada). The aortic flow velocity-time integral (VTI) was measured using pulse wave Doppler just above the aortic root. The aortic cross-sectional area (CSA) was calculated from the aortic root dimension (ARD): CSA=π(ARD/2)2. Stroke volume (SV), CO and TPR were calculated as: SV=CSA×VTI; CO=SV×HR; TPR=MAP/CO.
Myocardial infarction: HF was induced by surgical ligation of the left anterior descending coronary artery (3). Briefly, mice were anaesthetized with isoflurane, intubated with a 20-gauge angiocatheter and ventilated with room air. Under sterile conditions, the thorax and pericardium were opened, and the left anterior descending coronary artery was permanently ligated with 7-0 silk suture (Deknatel: Fall River, USA). In sham-operated controls, the thorax and pericardium were opened, but the left anterior descending coronary artery was not ligated. Following the procedure, the chest was closed and the mice were extubated upon spontaneous respiration. Posterior cerebral arteries (PCAs) were isolated 4-6 weeks post-infarction.

[3] = system: mice with subarachnoid hemorrhage; assay: Modified Garcia neurological score in subarachnoid hemorrhage mice; format: in vivo, mouse; conditions: SAH mice, 2 days post-SAH, maximum score 18, 3 mg/kg daily for 2 days
Method: Neurological Function Assessment: Neurological function was assessed utilizing the modified Garcia score, as previously described (6). The neurological assessment consists of 6 domains: spontaneous activity, spontaneous movement of all 4 limbs, forepaw outstretching, climbing, body proprioception and response to vibrissae touch. Two blinded observers conducted the neurological assessment 2 days after SAH. The maximum score is 18, indicative of normal neurological function.

CFTR = CFTR (Mus musculus, UniProt P26361); assay: CFTR protein expression in TNF-treated mesenteric artery primary vascular smooth muscle cells; format: cell-based; set-up: mesenteric artery segments were isolated, cut into small pieces and digested with trypsin, collagenase and elastase; endogenous in cells; host or cells: primary mesenteric artery vascular smooth muscle cells; conditions: 48 h TNF 10 ng/ml + C18 6 μmol/L for last 24 h
Method: Procedures for isolating and culturing mesenteric artery smooth muscle cells were carried out as described in (10). Briefly, mesenteric artery segments were isolated, cut into small pieces and digested with trypsin, collagenase and elastase. The resulting cell suspension was washed several times in phosphate-buffered saline and plated in Dulbecco's Modified Eagle Medium (DMEM) culture media containing 10% fetal bovine serum and 1% penicillin-streptomycin. Cell cultures were maintained at 37° C. with 5% CO2 and split at […] cells seeding density. Baby hamster kidney fibroblast cells stably expressing wild-type human CFTR (10,17) were maintained in DMEM/F12 media containing 5% fetal bovine serum and 250 μmol/L methotrexate (which activates the CFTR transgene promoter). Cells were maintained under standard cell culture conditions at 37° C. with 5% CO2.
Western blots for CFTR were completed as previously described (12, 18). […]
The primary antibodies were conjugated with either peroxidase-labeled donkey anti-rabbit IgG (GE Healthcare Amersham (Piscataway, USA) cat# NA934) or peroxidase-labeled goat anti-mouse IgG (GE Healthcare Amersham cat# NA931) secondary antibodies. […] Developed films were evaluated densitometrically using “Image J” software (freely available from the NIH); digital images were evaluated with Image Lab software (Bio-Rad).

Sequence of CFTR (P26361 whole entry): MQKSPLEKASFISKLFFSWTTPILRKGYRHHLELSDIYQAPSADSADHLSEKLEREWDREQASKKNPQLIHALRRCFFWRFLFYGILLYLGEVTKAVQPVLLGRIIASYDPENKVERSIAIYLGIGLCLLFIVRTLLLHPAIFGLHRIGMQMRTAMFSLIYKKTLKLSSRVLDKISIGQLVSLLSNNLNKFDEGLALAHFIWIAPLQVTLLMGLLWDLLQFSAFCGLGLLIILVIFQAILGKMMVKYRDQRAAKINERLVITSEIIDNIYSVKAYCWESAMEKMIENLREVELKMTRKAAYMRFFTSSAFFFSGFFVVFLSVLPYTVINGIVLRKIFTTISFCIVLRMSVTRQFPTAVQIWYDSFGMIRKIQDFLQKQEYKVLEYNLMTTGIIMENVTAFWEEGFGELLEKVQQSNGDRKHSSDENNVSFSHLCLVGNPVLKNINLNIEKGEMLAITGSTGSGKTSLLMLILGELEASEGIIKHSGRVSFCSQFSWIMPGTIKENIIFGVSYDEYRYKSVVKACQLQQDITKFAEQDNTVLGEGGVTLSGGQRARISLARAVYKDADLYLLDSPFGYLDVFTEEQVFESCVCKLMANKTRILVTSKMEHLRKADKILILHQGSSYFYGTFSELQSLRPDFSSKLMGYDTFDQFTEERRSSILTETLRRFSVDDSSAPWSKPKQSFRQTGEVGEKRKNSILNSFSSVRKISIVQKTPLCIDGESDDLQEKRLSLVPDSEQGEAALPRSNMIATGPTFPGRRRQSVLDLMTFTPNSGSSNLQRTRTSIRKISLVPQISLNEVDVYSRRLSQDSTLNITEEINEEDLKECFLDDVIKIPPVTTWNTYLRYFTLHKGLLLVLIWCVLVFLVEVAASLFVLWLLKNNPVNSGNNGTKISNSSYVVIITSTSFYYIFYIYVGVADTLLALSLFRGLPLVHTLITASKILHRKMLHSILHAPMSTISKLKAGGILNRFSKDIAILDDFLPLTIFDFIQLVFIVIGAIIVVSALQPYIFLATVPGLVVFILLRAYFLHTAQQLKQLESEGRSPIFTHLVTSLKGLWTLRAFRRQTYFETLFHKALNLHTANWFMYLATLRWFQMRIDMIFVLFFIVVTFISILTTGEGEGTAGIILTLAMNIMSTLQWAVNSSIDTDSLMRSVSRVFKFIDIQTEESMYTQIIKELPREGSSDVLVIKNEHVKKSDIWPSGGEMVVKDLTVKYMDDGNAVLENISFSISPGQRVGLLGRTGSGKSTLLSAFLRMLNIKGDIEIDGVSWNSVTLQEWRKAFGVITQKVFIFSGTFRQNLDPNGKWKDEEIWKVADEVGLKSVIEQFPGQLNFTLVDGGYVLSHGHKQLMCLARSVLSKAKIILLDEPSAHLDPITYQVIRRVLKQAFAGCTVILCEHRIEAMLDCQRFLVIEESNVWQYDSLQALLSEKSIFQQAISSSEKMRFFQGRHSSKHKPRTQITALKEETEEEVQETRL

In the case of `O=C(Nc1ncc(C(c2ccccc2Cl)N2CCC(O)C2)s1)C1(c2ccc3c(c2)OCO3)CC1` (centres unmarked) [C18, 1-(benzo[d][1,3]dioxol-5-yl)-N-(5-((2-chlorophenyl)(3-hydroxypyrrolidin-1-yl)methyl)thiazol-2-yl)cyclopropanecarboxamide], the “posterior cerebral artery myogenic tone” value ([1]; arteries from CFTR knockout mice, in vivo 3 mg/kg daily for 2 days) was “not susceptible; also recorded: not observed”, the “posterior cerebral artery myogenic tone” value ([1]; arteries from HF mice, in vivo 3 mg/kg daily for 2 days) was “normalizes; also recorded: reduces” and the “posterior cerebral artery myogenic tone” value ([1]; arteries from sham-operated mice, in vivo 3 mg/kg i.p. daily for 2 days) was “does not affect; also recorded: does not alter”. The “cardiac injury induced by left anterior descending coronary artery ligation” value [2] was “does not ameliorate”, the “mean arterial pressure (MAP)” value [2] was “no effect” and the “total peripheral resistance (TPR)” value ([2]; 3 mg/kg) was “no effect; also recorded: lack of effect”. The “Modified Garcia score (neurological function)” value [3] was “comparable to sham-operated mice; also recorded: restores the neurological score to the sham level” and the “CFTR protein expression after TNF down-regulation” value (CFTR) was “reverses the decline; also recorded: fully restores”.
